Test results published in patent US8247220B2, “Optical indicator for detecting bacterial pathogens” (Kimberly-Clark Worldwide, Inc., priority 2008, dated 2012).

How the values were obtained:
[1] = Bacterial cell-wall components on dye-coated substrate and titration with Reichardt's dye; details: 5%, 1%, 0.2% (wt/wt) solutions (pure LPS 0.1%, 0.02%, 0.004%); both experimental set-ups
Salmonella = experiment: Dye-coated absorbent substrate tested with Salmonella-containing liquid; details: 100 microliter aliquots on dye-coated substrate
From the text: Gibraltar Labs (Fairfield, N.J.) placed 100 microliter aliquots of the solutions onto the absorbent substrate.

S. aureus [2] = experiment: Standard curve on dye-coated paper, Delta E against log CFU/mL; details: paper coated with 80 mg/10 g acetonitrile, 100 μL aliquots, spectrophotometer CIELAB
autoclaved S. aureus = experiment: Autoclaved bacteria sprayed with Reichardt's dye indicator spray; details: S. aureus 10^6 CFU/mL autoclaved; spray 160 mg in 10 g isopropanol
Procedure: In order to verify that the bacterial cell wall plays a critical role in this reaction, a vial of S. aureus (10^6 CFU/mL) was autoclaved before testing with the indicator spray (160 mg Reichardt's Dye in 10 g of isopropanol). Autoclaving kills bacteria by essentially blowing the cell wall apart. The steam from the autoclave penetrates the bacteria and rips the membrane apart.

Rhinovirus Type 42 = experiment: Reichardt's dye-treated samples with upper respiratory viruses; details: compared with Salmonella bacterial control at a similar concentration
[3] = test system: Streptococcus pneumoniae (ATCC # 10015); experiment: Reichardt's dye-treated samples with upper respiratory pathogens; details: 100 microliters
From the text: (§1) It has been observed in prior experiments that gram positive bacteria elicit a stronger de-colorization response than other types of microorganisms.

[4] = test system: Streptococcus pyogenes (ATCC # 10782); experiment: as above; details: 100 microliters
From the text: as §1

[5] = test system: Moraxella lacunata (ATCC # 17972); experiment: as above; details: 100 microliters
From the text: as §1

[6] = test system: Haemophilus influenzae (ATCC # 49247); experiment: as above; details: 100 microliters
From the text: as §1

Lactobacillus = experiment: Titration of microorganism spot with Reichardt's dye solution; details: 10^7 CFU/ml, 100 μl; dye 160 mg in 10 g acetonitrile, 10 μl aliquots
G. vaginalis = experiment: as above; details: 10^7 CFU/ml, 100 μl; dye 160 mg in 10 g acetonitrile, 10 μl aliquots
[7] = test system: bacterial spores such as Anthracis bacillus
[8] = test system: Influenza A (ATCC # VR-544); experiment: Reichardt's dye-treated samples with upper respiratory viruses; details: compared with Salmonella bacterial control at a similar concentration
C. albicans = experiment: Titration of microorganism spot with Reichardt's dye solution; details: 10^7 CFU/ml, 100 μl; dye 160 mg in 10 g acetonitrile, 10 μl aliquots
S. aureus [9] = experiment: as above; details: 10^7 CFU/ml, 100 μl; dye 160 mg in 10 g acetonitrile, 10 μl aliquots
From the text: (§2) 10^7 CFU/ml of S. aureus.

E. coli = experiment: as above; details: 10^7 CFU/ml, 100 μl; dye 160 mg in 10 g acetonitrile, 10 μl aliquots
From the text: as §2

P. aeruginosa = experiment: as above; details: 10^7 CFU/ml, 100 μl; dye 160 mg in 10 g acetonitrile, 10 μl aliquots
S. aureus protoplasts = experiment: Protoplasts on label coated with Reichardt's dye; details: 100 μL aliquot, label coated with 80 mg/10 g acetonitrile, approximately 5 minutes
Procedure: An additional test to verify reaction with the cell wall was performed by creating protoplasts through enzymatic digestion of the bacterial cell wall. […] Louis, Mo.) suspended in TM buffer (0.05 M Tris-HCl, pH 7.4, 20 mM MgCl2) with 15% (w/v) of sucrose (Sigma-Aldrich, St. Louis, Mo.). The reaction was carried out for one hour at 30° C., after which the solution was centrifuged at 10,000×g, and rinsed twice with TM buffer containing 13% (w/v) sucrose according to methods detailed by Taku and Fan (The Journal of Biological Chemistry, 1979). The solution containing protoplasts was reacted (100 μL aliquot) with an Avery label coated with Reichardt's dye (80 mg/10 g acetonitrile). Untreated bacteria was diluted 10 fold in the TM/13% sucrose buffer (without lysozyme) and were placed on the label as a positive control.

gram-positive bacteria = experiment: Visible colour change of Reichardt's dye-coated absorbent substrate, serial dilutions of bacteria; details: 100 μl aliquot on dye-coated substrate, colour change visible to the eye
vegetative organism = test system: vegetative organism; design: species or system Anthracis bacillus
A. niger = experiment: Titration of microorganism spot with Reichardt's dye solution; details: 10^5 CFU/mL, 100 μl; dye 160 mg in 10 g acetonitrile, 10 μl aliquots

C[C@@H](O[C@H]1[C@H](O)[C@@H](CO)OC(O)[C@@H]1N)C(=O)O (stereo partly drawn) [Muramic acid, muramic acid]
de-colorization of Reichardt's dye by cell-wall component [1]: strongest reaction, resulting in a near instantaneous de-colorization of the dye

[O-]c1c(-c2ccccc2)cc(-[n+]2c(-c3ccccc3)cc(-c3ccccc3)cc2-c2ccccc2)cc1-c1ccccc1 [Reichardt's dye, 4-(2,4,6-triphenylpyridinium-1-yl)-2,6-diphenylphenolate]
de-colorization of the dye (Salmonella): decolorized the dye
responsiveness of the dye (Delta E) (S. aureus [2]): dose-dependent
de-colorization of the dye (autoclaved S. aureus): no de-colorization was observed
de-colorization of the dye (Rhinovirus Type 42): markedly less de-colorization
de-colorization of dye-treated samples [3]: de-colorized
de-colorization of dye-treated samples [4]: de-colorized
de-colorization of dye-treated samples [5]: de-colorized
de-colorization of dye-treated samples [6]: de-colorized
Amount of Dye Required for Persistent Color (Lactobacillus): 110 µL
Amount of Dye Required for Persistent Color (G. vaginalis): 90 µL
sensitivity of the dye to bacterial spores [7]: not sufficiently sensitive
de-colorization of the dye [8]: markedly less de-colorization
Amount of Dye Required for Persistent Color (C. albicans): 70 µL
Amount of Dye Required for Persistent Color (S. aureus [9]): 90 µL
Amount of Dye Required for Persistent Color (E. coli): 90 µL
Amount of Dye Required for Persistent Color (P. aeruginosa): 80 µL
de-colorization of the dye (S. aureus protoplasts): minimal de-colorization
lower limit for indication of gram-positive bacteria (gram-positive bacteria): 100 CFU/ml
de-colorization of the dye (vegetative organism): de-colorization occurred
Amount of Dye Required for Persistent Color (A. niger): 50 µL
